What was measured:
Striga [1] = experiment: Field experiment Short Rains 2002: slow release formulations without free herbicide, Striga control; type: in vivo
Procedure: A solid coat of polylvinylpyrollidone (PVP) (avg. MW 90 Kd) was used to bind the various formulations to the maize seed. 90 mg of PVP mixed with 2.9 ml water was combined with various amounts of the slow release formulations described in Example 1 or with 36 mg dry imazapyr (acid form) or sodium pyrithiobac powder mixed thoroughly together and then with 144 maize seeds (to give a imazapyr coating of 0.25 mg a.e. imazapyr seed^−1). This is the equivalent of 13.25 g a.e. ha^−1, respectively, when planted in the field at 53,300 seeds ha^−1. The treated seeds were then planted in the field within 2 days of coating. All field experiments were conducted at the National Sugar Research Center (NRSC) of the Kenya Agricultural Research Institute (KARI) near Kibos (0°04′S, 34°48′, elevation 1214 m) in western Kenya. The soil is classified as a vetro-eutic planosol according to the FAO/UNESCO (1974) system. The fields used had previously been cropped to maize that was heavily infested with Striga, which matured and seeded the area. The experiments were carried out during October-January […]. Seasonal precipitation during that season was 550 mm. […] Maize stand counts were determined six weeks after planting. […] The number of flowering Striga plants and Striga seed capsules at twelve and fourteen weeks; adjusted grain yield to 15% moisture; and total maize shoot dry weight were all measured. […]

Striga [2] = experiment: Pot experiments, Kenya: watering regimes and efficacy of slow release formulations on Striga; type: in vivo; conditions: pots
Procedure: Formulations were prepared as outlined in Example 3 and applied to the seeds, without adding free imazapyr (as in Example 2) and planted in pots. 63 pots (10,380 cm^3) were set up, each with 8 kg soil (classified as a vetro-eutic planosol according to the FAO/UNESCO (1974) system) so that we had 21 pots per replication. Each pot was inoculated with 3,000 Striga and mixed thoroughly at a depth of 15 cm. The pots were watered and left for one week to allow Striga seeds to “pre-condition” for germination. Two IR-corn seeds were planted in each plot, each treated 0, 0.25, 0.5 acid equivalent mg imazapyr per pot, as the free acid of the herbicide, or in 0, 0.15, 0.3, acid equivalent mg imazapyr per pot DE-52 or Dowex 1 formulations. Each formulation treatment at each rate had three replicates at each simulated rainfall regime. Natural rain measurements were made. Rainfall was supplemented at 19, 28, and 56 mm of water applied twice weekly, less amount of natural rainfall, for three months to simulate seasonal rainfalls of 500, 750 and 1500 mm, respectively. Measurements of Striga emergence were made at biweekly intervals. Late season emergence of Striga was measured at 12 weeks after planting. […] At the medium and highest watering level, there was no control of Striga by the lowest free herbicide rates, whereas the slow release herbicide performed far better (Table 3).

CC(C)C1(C)N=C(c2ncccc2C(=O)O)NC1=O (centres unmarked) [Imazapyr, imazapyr]
Striga emergence (m^−2) at 12 weeks (Striga [1]; imazapyr 0.25 mg/seed): 2.1 m^−2 | Striga emergence (m^−2) at 12 weeks (Striga [1]; imazapyr 0.5 mg/seed): 0.7 m^−2 | Late season Striga emergence 12 weeks (plants/m^2) (Striga [2]; High water (1500 mm total), imazapyr 0.25 mg/seed): 57 plants/m^2 | Late season Striga emergence 12 weeks (plants/m^2) (Striga [2]; High water (1500 mm total), imazapyr 0.5 mg/seed): 11 plants/m^2 | Late season Striga emergence 12 weeks (plants/m^2) (Striga [2]; Low water (500 mm total), imazapyr 0.25 mg/seed): 16 plants/m^2 | Late season Striga emergence 12 weeks (plants/m^2) (Striga [2]; Low water (500 mm total), imazapyr 0.5 mg/seed): 3 plants/m^2 | Late season Striga emergence 12 weeks (plants/m^2) (Striga [2]; Medium water (750 mm total), imazapyr 0.25 mg/seed): 33 plants/m^2 | Late season Striga emergence 12 weeks (plants/m^2) (Striga [2]; Medium water (750 mm total), imazapyr 0.5 mg/seed): 7 plants/m^2
